According to publication PMC10648875 (Antimicrobial Agents and Chemotherapy, 2023):
Values after ≈ are worked out from the molar mass of the structure shown.

System: isogenic efflux and porin mutants of K. pneumoniae and their NDM-1-producing derivatives
Test: MIC against isogenic efflux and porin mutants (Table 9)
Type: cell-based
Conditions: for BLI MIC / MIC: BLI alone; for MIC: Klebsiella pneumoniae
[1] = KPM1026a, Wild type, ATCC 43816, β-lactamase None, BLI 0 µg/mL
[2] = KPM1026a, Wild type, ATCC 43816, β-lactamase None, BLI 4 µg/mL
[3] = KPM1026a, Wild type, ATCC 43816, β-lactamase None, BLI 8 µg/mL
[4] = KPM1027, ramR*, β-lactamase None, BLI 0 µg/mL
[5] = KPM1027, ramR*, β-lactamase None, BLI 4 µg/mL
[6] = KPM1027, ramR*, β-lactamase None, BLI 8 µg/mL
[7] = KPM1281, Wild type, ATCC 43816, NDM-1, BLI 0 µg/mL
[8] = KPM1281, Wild type, ATCC 43816, NDM-1, BLI 4 µg/mL
[9] = KPM1281, Wild type, ATCC 43816, NDM-1, BLI 8 µg/mL
[10] = KPM1282, ramR*, NDM-1, BLI 0 µg/mL
[11] = KPM1282, ramR*, NDM-1, BLI 4 µg/mL
[12] = KPM1282, ramR*, NDM-1, BLI 8 µg/mL
[13] = KPM2013, mpK36_2040 ΔompK35, β-lactamase None, BLI 0 µg/mL
[14] = KPM2013, mpK36_2040 ΔompK35, β-lactamase None, BLI 4 µg/mL
[15] = KPM2013, mpK36_2040 ΔompK35, β-lactamase None, BLI 8 µg/mL
[16] = KPM2013, mpK36_2040 ΔompK35, β-lactamase None
[17] = KPM2040, mpK36_2040*, β-lactamase None, BLI 0 µg/mL
[18] = KPM2040, mpK36_2040*, β-lactamase None, BLI 4 µg/mL
[19] = KPM2040, mpK36_2040*, β-lactamase None, BLI 8 µg/mL
[20] = KPM2040, mpK36_2040*, β-lactamase None
[21] = KPM3820, mpK36_2040*, NDM-1, BLI 0 µg/mL
[22] = KPM3820, mpK36_2040*, NDM-1, BLI 4 µg/mL
[23] = KPM3820, mpK36_2040*, NDM-1, BLI 8 µg/mL
[24] = KPM3825, mpK36_2040 ΔompK35, NDM-1, BLI 0 µg/mL
[25] = KPM3825, mpK36_2040 ΔompK35, NDM-1, BLI 4 µg/mL
[26] = KPM3825, mpK36_2040 ΔompK35, NDM-1, BLI 8 µg/mL
[27] = KPM3825, mpK36_2040 ΔompK35, NDM-1

Compound: NCCN[C@H]1CC[C@H](CC(=O)N[C@H]2Cc3cccc(C(=O)O)c3OB2O)CC1 [Taniborbactam, taniborbactam]
- Cefepime MIC with BLIs [1]: 0.03 µg/mL
- Meropenem MIC with BLIs [1]: 0.03 µg/mL
- Cefepime MIC with BLIs [2]: 0.03 µg/mL
- Meropenem MIC with BLIs [2]: 0.03 µg/mL
- Cefepime MIC with BLIs [3]: 0.03 µg/mL
- Meropenem MIC with BLIs [3]: 0.03 µg/mL
- BLI MIC (KPM1026a, Wild type, ATCC 43816, β-lactamase None): >64 µg/mL
- Cefepime MIC with BLIs [4]: 0.25 µg/mL
- Meropenem MIC with BLIs [4]: 0.06 µg/mL
- Cefepime MIC with BLIs [5]: 0.25 µg/mL
- Meropenem MIC with BLIs [5]: 0.06 µg/mL
- Cefepime MIC with BLIs [6]: 0.25 µg/mL
- Meropenem MIC with BLIs [6]: 0.06 µg/mL
- BLI MIC (KPM1027, ramR*, β-lactamase None): >64 µg/mL
- Cefepime MIC with BLIs [7]: 16 µg/mL
- Meropenem MIC with BLIs [7]: 32 µg/mL
- Cefepime MIC with BLIs [8]: 0.25 µg/mL
- Meropenem MIC with BLIs [8]: 0.125 µg/mL
- Cefepime MIC with BLIs [9]: 0.125 µg/mL
- Meropenem MIC with BLIs [9]: 0.06 µg/mL
- BLI MIC (KPM1281, Wild type, ATCC 43816, NDM-1): >64 µg/mL
- Cefepime MIC with BLIs [10]: 32 µg/mL
- Meropenem MIC with BLIs [10]: 64 µg/mL
- Cefepime MIC with BLIs [11]: 0.5 µg/mL
- Meropenem MIC with BLIs [11]: 0.25 µg/mL
- Cefepime MIC with BLIs [12]: 0.5 µg/mL
- Meropenem MIC with BLIs [12]: 0.125 µg/mL
- BLI MIC (KPM1282, ramR*, NDM-1): >64 µg/mL
- Cefepime MIC with BLIs [13]: 0.5 µg/mL
- Meropenem MIC with BLIs [13]: 0.25 µg/mL
- Cefepime MIC with BLIs [14]: 0.5 µg/mL
- Meropenem MIC with BLIs [14]: 0.25 µg/mL
- Cefepime MIC with BLIs [15]: 0.5 µg/mL
- Meropenem MIC with BLIs [15]: 0.25 µg/mL
- BLI MIC [16]: >64 µg/mL
- Cefepime MIC with BLIs [17]: 0.125 µg/mL
- Meropenem MIC with BLIs [17]: 0.125 µg/mL
- Cefepime MIC with BLIs [18]: 0.125 µg/mL
- Meropenem MIC with BLIs [18]: 0.125 µg/mL
- Cefepime MIC with BLIs [19]: 0.125 µg/mL
- Meropenem MIC with BLIs [19]: 0.125 µg/mL
- BLI MIC [20]: >64 µg/mL
- Cefepime MIC with BLIs [21]: 128 µg/mL
- Meropenem MIC with BLIs [21]: 128 µg/mL
- Cefepime MIC with BLIs [22]: 4 µg/mL
- Meropenem MIC with BLIs [22]: 8 µg/mL
- Cefepime MIC with BLIs [23]: 2 µg/mL
- Meropenem MIC with BLIs [23]: 4 µg/mL
- BLI MIC (KPM3820, mpK36_2040*, NDM-1): >64 µg/mL
- Cefepime MIC with BLIs [24]: 256 µg/mL
- Meropenem MIC with BLIs [24]: 256 µg/mL
- Cefepime MIC with BLIs [25]: 8 µg/mL
- Meropenem MIC with BLIs [25]: 32 µg/mL
- Cefepime MIC with BLIs [26]: 4 µg/mL
- Meropenem MIC with BLIs [26]: 16 µg/mL
- BLI MIC [27]: >64 µg/mL

Compound: O=C(O)c1c(F)ccc2c1OB(O)[C@@H]1C[C@H]21 [Xeruborbactam, xeruborbactam]
- Cefepime MIC with BLIs [1]: 0.03 µg/mL
- Meropenem MIC with BLIs [1]: 0.03 µg/mL
- Cefepime MIC with BLIs [2]: 0.015 µg/mL
- Meropenem MIC with BLIs [2]: 0.015 µg/mL
- Cefepime MIC with BLIs [3]: 0.002 µg/mL
- Meropenem MIC with BLIs [3]: 0.008 µg/mL
- Cefepime MIC with BLIs [4]: 0.25 µg/mL
- Meropenem MIC with BLIs [4]: 0.06 µg/mL
- Cefepime MIC with BLIs [5]: 0.125 µg/mL
- Meropenem MIC with BLIs [5]: 0.015 µg/mL
- Cefepime MIC with BLIs [6]: 0.015 µg/mL
- Meropenem MIC with BLIs [6]: 0.004 µg/mL
- Cefepime MIC with BLIs [7]: 16 µg/mL
- Meropenem MIC with BLIs [7]: 32 µg/mL
- Cefepime MIC with BLIs [8]: 0.03 µg/mL
- Meropenem MIC with BLIs [8]: 0.06 µg/mL
- Cefepime MIC with BLIs [9]: 0.008 µg/mL
- Meropenem MIC with BLIs [9]: 0.004 µg/mL
- Cefepime MIC with BLIs [10]: 32 µg/mL
- Meropenem MIC with BLIs [10]: 64 µg/mL
- Cefepime MIC with BLIs [11]: 0.25 µg/mL
- Meropenem MIC with BLIs [11]: 0.125 µg/mL
- Cefepime MIC with BLIs [12]: 0.06 µg/mL
- Meropenem MIC with BLIs [12]: 0.03 µg/mL
- Cefepime MIC with BLIs [13]: 0.5 µg/mL
- Meropenem MIC with BLIs [13]: 0.25 µg/mL
- Cefepime MIC with BLIs [14]: 0.25 µg/mL
- Meropenem MIC with BLIs [14]: 0.125 µg/mL
- Cefepime MIC with BLIs [15]: 0.06 µg/mL
- Meropenem MIC with BLIs [15]: 0.06 µg/mL
- Cefepime MIC with BLIs [17]: 0.125 µg/mL
- Meropenem MIC with BLIs [17]: 0.125 µg/mL
- Cefepime MIC with BLIs [18]: 0.06 µg/mL
- Meropenem MIC with BLIs [18]: 0.06 µg/mL
- Cefepime MIC with BLIs [19]: 0.015 µg/mL
- Meropenem MIC with BLIs [19]: 0.03 µg/mL
- Cefepime MIC with BLIs [21]: 128 µg/mL
- Meropenem MIC with BLIs [21]: 128 µg/mL
- Cefepime MIC with BLIs [22]: 1 µg/mL
- Meropenem MIC with BLIs [22]: 4 µg/mL
- Cefepime MIC with BLIs [23]: 0.5 µg/mL
- Meropenem MIC with BLIs [23]: 1 µg/mL
- Cefepime MIC with BLIs [24]: 256 µg/mL
- Meropenem MIC with BLIs [24]: 256 µg/mL
- Cefepime MIC with BLIs [25]: 2 µg/mL
- Meropenem MIC with BLIs [25]: 8 µg/mL
- Cefepime MIC with BLIs [26]: 1 µg/mL
- Meropenem MIC with BLIs [26]: 2 µg/mL
- MIC (ATCC43816, KPM1026a, Wild type, ATCC 43816, β-lactamase None): 16 µg/mL (≈ 72.1 µM)
- MIC (ATCC43816, KPM1281, Wild type, ATCC 43816, NDM-1): 16 µg/mL (≈ 72.1 µM)
- MIC [16]: 32 µg/mL (≈ 144 µM)
- MIC [20]: 32 µg/mL (≈ 144 µM)
- MIC (KPM3820, mpK36_2040*, NDM-1): 32 µg/mL (≈ 144 µM)
- MIC [27]: 32 µg/mL (≈ 144 µM)
